Test results: ChEMBL document CHEMBL4138123, “Design, synthesis and biological evaluation of novel pyrazolochalcones as potential modulators of PI3K/Akt/mTOR pathway and inducers of apoptosis in breast cancer cells” (Eur J Med Chem, 2017)

Tests used:
Type in all cases: functional
CCRF-CEM [1] = assay: Cytotoxicity against human CCRF-CEM cells assessed as growth inhibition after 48 hrs by sulforhodamine B assay
A549 [2] = assay: Cytotoxicity against human A549/ATCC cells assessed as growth inhibition after 48 hrs by sulforhodamine B assay; conditions: A549, 48 h
HOP-62 = assay: Cytotoxicity against human HOP62 cells assessed as growth inhibition after 48 hrs by sulforhodamine B assay; conditions: HOP-62, 48 h
NCI-H322M [3] = assay: Cytotoxicity against human NCI-H322M cells assessed as growth inhibition after 48 hrs by sulforhodamine B assay
NCI-H522 [4] = assay: Cytotoxicity against human NCI-H522 cells assessed as growth inhibition after 48 hrs by sulforhodamine B assay; conditions: NCI-H522, 48 h
OVCAR-3 = assay: Cytotoxicity against human OVCAR3 cells assessed as growth inhibition after 48 hrs by sulforhodamine B assay; conditions: OVCAR-3, 48 h
OVCAR-8 [5] = assay: Cytotoxicity against human OVCAR8 cells assessed as growth inhibition after 48 hrs by sulforhodamine B assay; conditions: OVCAR-8, 48 h
NCI/ADR-RES = assay: Cytotoxicity against human NCI/ADR-RES cells assessed as growth inhibition after 48 hrs by sulforhodamine B assay
SK-OV-3 = assay: Cytotoxicity against human SKOV3 cells assessed as growth inhibition after 48 hrs by sulforhodamine B assay; conditions: SK-OV-3, 48 h
786-0 = assay: Cytotoxicity against human 786-0 cells assessed as growth inhibition after 48 hrs by sulforhodamine B assay; conditions: 786-0, 48 h
A498 = assay: Cytotoxicity against human A498 cells assessed as growth inhibition after 48 hrs by sulforhodamine B assay; conditions: A498, 48 h
RXF 393 = assay: Cytotoxicity against human RXF393 cells assessed as growth inhibition after 48 hrs by sulforhodamine B assay; conditions: RXF 393, 48 h
MCF7 = assay: Cytotoxicity against human MCF7 cells assessed as growth inhibition after 48 hrs by sulforhodamine B assay; conditions: MCF7, 48 h
RPMI-8226 [6] = assay: Cytotoxicity against human RPMI8226 cells assessed as cell growth at 0.01 uM after 48 hrs by sulforhodamine B assay relative to control; conditions: RPMI-8226, 48 h, read-out: Activity
MOLT-4 = assay: Cytotoxicity against human MOLT4 cells assessed as cell growth at 0.01 uM after 48 hrs by sulforhodamine B assay relative to control; conditions: MOLT-4, 48 h, read-out: Activity
SN12C [7] = assay: Cytotoxicity against human SN12C cells assessed as cell growth at 0.01 uM after 48 hrs by sulforhodamine B assay relative to control; conditions: read-out: Activity
T47D = assay: Cytotoxicity against human T47D cells assessed as cell growth at 0.01 uM after 48 hrs by sulforhodamine B assay relative to control; conditions: read-out: Activity
MDA-MB-468 = assay: Cytotoxicity against human MDA-MB-468 cells assessed as cell growth at 0.01 uM after 48 hrs by sulforhodamine B assay relative to control; conditions: MDA-MB-468, 48 h, read-out: Activity
SR [8] = assay: Cytotoxicity against human SR cells assessed as cell growth at 0.1 uM after 48 hrs by sulforhodamine B assay relative to control; conditions: read-out: Activity
NCI-H322M [9] = assay: Cytotoxicity against human NCI-H322M cells assessed as cell growth at 0.1 uM after 48 hrs by sulforhodamine B assay relative to control; conditions: read-out: Activity
NCI-H522 [10] = assay: Cytotoxicity against human NCI-H522 cells assessed as cell growth at 0.1 uM after 48 hrs by sulforhodamine B assay relative to control; conditions: NCI-H522, 48 h, read-out: Activity
OVCAR-8 [11] = assay: Cytotoxicity against human OVCAR8 cells assessed as cell growth at 0.1 uM after 48 hrs by sulforhodamine B assay relative to control; conditions: OVCAR-8, 48 h, read-out: Activity
SR [12] = assay: Cytotoxicity against human SR cells assessed as cell growth at 1 uM after 48 hrs by sulforhodamine B assay relative to control; conditions: read-out: Activity
SK-MEL-5 = assay: Cytotoxicity against human SK-MEL-5 cells assessed as cell growth at 1 uM after 48 hrs by sulforhodamine B assay relative to control; conditions: SK-MEL-5, 48 h, read-out: Activity
SN12C [13] = assay: Cytotoxicity against human SN12C cells assessed as cell growth at 1 uM after 48 hrs by sulforhodamine B assay relative to control; conditions: read-out: Activity
K562 = assay: Cytotoxicity against human K562 cells assessed as cell growth at 10 uM after 48 hrs by sulforhodamine B assay relative to control; conditions: K562, 48 h, read-out: Activity
SR [14] = assay: Cytotoxicity against human SR cells assessed as cell growth at 10 uM after 48 hrs by sulforhodamine B assay relative to control; conditions: read-out: Activity
A549 [15] = assay: Cytotoxicity against human A549/ATCC cells assessed as cell growth at 10 uM after 48 hrs by sulforhodamine B assay relative to control; conditions: A549, 48 h, read-out: Activity
HCC 2998 = assay: Cytotoxicity against human HCC2998 cells assessed as cell growth at 10 uM after 48 hrs by sulforhodamine B assay relative to control; conditions: HCC 2998, 48 h, read-out: Activity
MDA-MB-435 = assay: Cytotoxicity against human MDA-MB-435 cells assessed as cell growth at 10 uM after 48 hrs by sulforhodamine B assay relative to control; conditions: MDA-MB-435, 48 h, read-out: Activity
SN12C [16] = assay: Cytotoxicity against human SN12C cells assessed as cell growth at 10 uM after 48 hrs by sulforhodamine B assay relative to control; conditions: read-out: Activity
UO-31 [17] = assay: Cytotoxicity against human UO31 cells assessed as cell growth at 10 uM after 48 hrs by sulforhodamine B assay relative to control; conditions: UO-31, 48 h, read-out: Activity
CCRF-CEM [18] = assay: Cytotoxicity against human CCRF-CEM cells assessed as cell growth at 100 uM after 48 hrs by sulforhodamine B assay relative to control; conditions: read-out: Activity
RPMI-8226 [19] = assay: Cytotoxicity against human RPMI8226 cells assessed as cell growth at 100 uM after 48 hrs by sulforhodamine B assay relative to control; conditions: RPMI-8226, 48 h, read-out: Activity
M14 = assay: Cytotoxicity against human M14 cells assessed as cell growth at 100 uM after 48 hrs by sulforhodamine B assay relative to control; conditions: M14, 48 h, read-out: Activity
SN12C [20] = assay: Cytotoxicity against human SN12C cells assessed as cell growth at 100 uM after 48 hrs by sulforhodamine B assay relative to control; conditions: read-out: Activity
UO-31 [21] = assay: Cytotoxicity against human UO31 cells assessed as cell growth at 100 uM after 48 hrs by sulforhodamine B assay relative to control; conditions: UO-31, 48 h, read-out: Activity

## COc1cc(-c2cc(/C=C/C(=O)c3ccc(N)cc3)[nH]n2)cc(OC)c1OC
CCRF-CEM [1]
  GI50: 0.55 µM
  LC50 (concentration killing 50% of cells): > 100 µM
  TGI: 4.17 µM
A549 [2]
  GI50: 2.08 µM
  LC50 (concentration giving 50% net cell kill): 86.5 µM
  TGI: 7.02 µM
HOP-62
  GI50: 1.77 µM
  LC50: 8.7 µM
  TGI: 3.92 µM
NCI-H322M [3]
  GI50: 2.23 µM
  TGI: 5.59 µM
NCI-H322M [3]; read-out: LC50 (the source's name)
  CC50: 20.9 µM
NCI-H522 [4]
  GI50: 1.62 µM
  LC50: 9.81 µM
  TGI: 3.99 µM
OVCAR-3
  GI50: 1.57 µM
  LC50: 7.26 µM
  TGI: 3.37 µM
OVCAR-8 [5]
  GI50: 2.39 µM
  LC50: 34.9 µM
  TGI: 9.76 µM
NCI/ADR-RES
  GI50: 3.8 µM
  LC50: > 100 µM
  TGI: 65.8 µM
SK-OV-3
  GI50: 2.99 µM
  LC50: 28.9 µM
  TGI: 8.32 µM
786-0
  GI50: 2.04 µM
  LC50: 27.6 µM
  TGI: 6.49 µM
A498
  GI50: 1.64 µM
  LC50: 13.4 µM
  TGI: 4.33 µM
RXF 393
  GI50: 1.35 µM
  LC50 (concentration killing 50% of cells): 7.79 µM
  TGI: 3.24 µM
MCF7
  GI50: 1.5 µM
  LC50: 60.5 µM
  TGI: 5.42 µM
RPMI-8226 [6]
  growth at 0.01 µM: 98%
MOLT-4
  growth at 0.01 µM: 101%
SN12C [7]
  growth at 0.01 µM: 98%
T47D
  growth at 0.01 µM: 83%
MDA-MB-468
  growth at 0.01 µM: 90%
SR [8]
  growth at 0.1 µM: 87%
NCI-H322M [9]
  growth at 0.1 µM: 103%
NCI-H522 [10]
  growth at 0.1 µM: 92%
OVCAR-8 [11]
  growth at 0.1 µM: 98%
SR [12]
  growth at 1 µM: 14%
SK-MEL-5
  growth at 1 µM: 90%
SN12C [13]
  growth at 1 µM: 85%
K562
  growth at 10 µM: 2%
SR [14]
  growth at 10 µM: -18%
A549 [15]
  growth at 10 µM: -15%
HCC 2998
  growth at 10 µM: -86%
MDA-MB-435
  growth at 10 µM: -86%
SN12C [16]
  growth at 10 µM: -45%
UO-31 [17]
  growth at 10 µM: -84%
CCRF-CEM [18]
  growth at 100 µM: -21%
RPMI-8226 [19]
  growth at 100 µM: -40%
M14
  growth at 100 µM: -78%
SN12C [20]
  growth at 100 µM: -86%
UO-31 [21]
  growth at 100 µM: -93%
